Measured values from patent US9963474B2, “Mitochondria-targeted dicarbonyl sequestering compounds” (MEDICAL RESEARCH COUNCIL, priority 2013, dated 2018).

Columns and labels:
BAECs = experiment: Protection against dicarbonyl-induced cell death, BAECs, MTS assay; format: cell-based, bovine; settings: pre-treated 1 h, overnight
Description: (§1) Isolated RLM respiring on glutamate/malate were incubated with MitoG, methoxyphenylenediamine (MP) or butylTPP for 2 min, followed by 0.5 mM methylglyoxal or 5 mM glyoxal for 5 min. ADP was then added and the rate of oxygen consumption monitored at 37° C. (see FIGS. 12A & 12B). C2C12 cells were pre-treated with MitoG, methoxyphenylenediamine (MP) or butylTPP for 1 h before exposure to 1 mM methylglyoxal or 5 mM glyoxal (see FIGS. 12C & 12D). Following an overnight incubation, cell survival was determined using the MTS assay. Similar experiments were conducted in BAECs pre-treated with MitoG, MP or butylTPP. For all experiments, concentrations of methylglyoxal and glyoxal used were chosen based on results from studies conducted prior to the protection assays. In these prior studies, RLM or cells were exposed to a range of dicarbonyl concentrations, and the phosphorylating rates of respiration or cell survival were evaluated. The results of these earlier experiments are shown in insets, and dicarbonyl concentrations that had caused significant respiratory depression or cell death were chosen for use in the protection assays. Data for all groups were normalized against untreated controls. For RLM, the rate of respiration by untreated controls was taken to be 100%; for cells, cell survival of untreated controls was taken to be 100%. Results are expressed as mean±S.E. of three independent experiments. MitoG was protective against methylglyoxal-induced respiratory depression and both methylglyoxal- and glyoxal-induced cell death in C2C12 cells and BAECs. […] In FIG. 12 the symbols *, ** respectively indicate that P<0.05 or P<0.01 relative to dicarbonyl-only groups; and the symbols +, ++ respectively indicate that P<0.05 or P<0.01 relative to untreated controls.

[1] = system: RLM respiring on glutamate/malate; experiment: Protection against dicarbonyl-induced respiratory depression in isolated RLM; design: species or system rat; settings: 37° C.
Description: as §1

[2] = system: RLM respiring on glutamate/malate; experiment: Effect on respiration of isolated RLM (oxygen electrode); design: species or system rat
Description: (A, B) RLM respiring on glutamate/malate at 37° C. were incubated with various concentrations of MitoG for 7 min in an oxygen electrode to measure coupled respiration (A) before ADP was added to measure phosphorylating respiration (B). Data are the percentage of the respiration rates of untreated controls (dashed lines). (C and D) C2C12 cells (C) or BAECs [Bovine Aortic Endothelial Cells; Cell Applications Inc, San Diego, Calif.] (D) were incubated with MitoG for 24 h and cell survival was then determined using the MTS assay. Data are expressed as a percentage of the untreated controls (dashed line). (E-H) BAECs were incubated with MitoG for 2 h at 37° C. and the cellular oxygen consumption rate (OCR) after the sequential additions of oligomycin, FCCP and antimycin A/rotenone were then measured using a Seahorse XF24 analyser. (E) OCR due to ATP synthesis, (F) OCR due to proton leak, (G) reserve capacity and (H) non-mitochondrial oxygen consumption. […]
Rat liver mitochondria (RLM) were prepared at 4° C. in STE buffer [250 mM sucrose, 5 mM Tris and 1 mM EGTA, pH 7.4 (HCl)] by homogenisation and differential centrifugation. Protein concentration was determined using the biuret assay relative to bovine serum albumin (BSA) and was typically 40-60 mg/ml. […] Oxygen consumption rates were determined from the slopes using Chart v5.5.6. for Mac (AD Instruments, Australia). […]

[3] = Stability of compounds assessed by RP-HPLC; format: physicochemical
Description: RP-HPLC was performed using a Gilson 321 pump with a C18 column (Jupiter 300 Å, Phenomenex) with a Widepore C18 guard column (Phenomenex). Samples (1 ml) were injected through a 0.22 μm PVDF filter (Millex, Millipore). HPLC buffer A [0.1% TFA in water] and HPLC buffer B (90% acetonitrile and 0.1% TFA) were used and a gradient was run at 1 ml/min at room temperature as follows: 0-2 min—5% B; 2-17 min—5-100% B; 17-19 min—100% B; 19-22 min—100-5% B. Peaks were detected by absorbance at 220 nm (UV/Vis 151, Gilson) and by fluorescence (excitation and emission wavelengths of 344 and 433 nm; RF-10AXL, Shimadzu). Partition coefficients between PBS and octan-1-ol were determined as previously described.
The syntheses of MitoG, its predicted quinoxaline products upon reaction with methylglyoxal and glyoxal, and their deuterated versions are summarized in FIG. 2. As expected, the spectrum of MitoG was a summation of those of the phenylenediamine, hexyloxyphenylenediamine (HP), and a simple alkylTPP salt.
The expected products of the reaction of MitoG with methylglyoxal (MQE) and glyoxal (QE) were synthesized and have UV/Vis absorption spectra distinct from that of MitoG (FIG. 3B). Both QE and MQE were fluorescent, while MitoG was not (FIG. 3C). The three compounds were resolved by RP-HPLC (FIG. 3D) although the MQE regioisomers (MQE1, MQE2; FIG. 1B) were not distinguished. Both MQE and QE were stable after one week at 37° C. as assessed by RP-HPLC (data not shown). It was concluded that MitoG is sufficiently stable for biological experiments involving trapping of glyoxal and methylglyoxal within mitochondria in cells and in vivo, and the reaction products MQE and QE were both robustly stable for chemical isolation and subsequent LC-MS/MS analyses.

- coupled respiration (proton leak) ([2]; 5 μM MitoG): slight increase in proton leak
- phosphorylating respiration ([2]; up to 5 μM MitoG): no effect
- decomposition of dilute solutions, loss by 4 h ([3]; 37° C., 4 h): minimal loss
- decomposition of dilute solutions, loss by 24 h ([3]; 37° C., 24 h): significant loss
- duration of biological experiments for which sufficiently stable ([3]; dilute solutions, 37° C.): ~4 h
- stability of stock solutions ([3]; storage at −20° C., RP-HPLC): stable
Compound: Nc1ccc(OCCCCCC[P+](c2ccccc2)(c2ccccc2)c2ccccc2)cc1N [MitoG, (6-(3,4-Diaminophenoxy)hexyl)triphenylphosphonium chloride]
- protection against glyoxal-induced cell death (BAECs): protective
- protection against methylglyoxal-induced cell death (BAECs): protective
- protection against methylglyoxal-induced respiratory depression ([1]; 0.5 mM methylglyoxal): protected against methylglyoxal-induced respiratory depression in isolated RLM in a dose-dependent manner
- protection against glyoxal-induced respiratory depression ([1]; 5 mM glyoxal): did not prevent glyoxal damage
